Test results taken from ChEMBL document CHEMBL4334435, “A focused structure-activity relationship study of psoralen-based immunoproteasome inhibitors” (Medchemcomm, 2019).
Activity calls are given as the source filed them. The rule behind the calls is not given here.

Assays:
PBMC [1] = assay: Inhibition of LPS-induced IL-1beta production in human PBMC at 50 nM preincubated for 1 hr followed by LPS addition and measured after 24 hrs by cytometric bead array-based FACS analysis; format: functional, cell-based
PBMC [2] = assay: Inhibition of LPS-induced IL-6 secretion in human PBMC at 50 nM preincubated for 1 hr followed by LPS addition and measured after 24 hrs by cytometric bead array-based FACS analysis; format: functional, cell-based
[3] = biological target: T1, Proteasome subunit beta type-8 (Homo sapiens) (UniProt P28062); assay: Reversible inhibition of human immunoproteasome beta 5i subunit assessed as recovery of enzyme activity at 45 nM using Suc-LLVY-AMC as substrate preincubated for 30 mins followed by 100-fold diluted substrate addition by rapid dilution assay relative to control; design: scale not given: the % may be the effect or the level left
T1 sequence (whole entry): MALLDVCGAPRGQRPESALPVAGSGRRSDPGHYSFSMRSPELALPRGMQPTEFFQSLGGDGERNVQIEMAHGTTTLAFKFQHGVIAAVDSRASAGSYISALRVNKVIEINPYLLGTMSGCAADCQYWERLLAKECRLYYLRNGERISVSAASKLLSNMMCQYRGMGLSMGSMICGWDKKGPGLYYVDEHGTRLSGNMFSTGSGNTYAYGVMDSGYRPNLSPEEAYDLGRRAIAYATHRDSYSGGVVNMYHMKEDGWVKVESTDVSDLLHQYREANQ

PBMC [4] = assay: Inhibition of LPS-induced IL-10 secretion in human PBMC at 50 nM preincubated for 1 hr followed by LPS addition and measured after 24 hrs by cytometric bead array-based FACS analysis; format: functional, cell-based
PBMC [5] = assay: Inhibition of LPS-induced IL-8 production in human PBMC at 50 nM preincubated for 1 hr followed by LPS addition and measured after 24 hrs by cytometric bead array-based FACS analysis; format: functional, cell-based
PBMC [6] = assay: Inhibition of LPS-induced IL-12p70 production in human PBMC at 50 nM preincubated for 1 hr followed by LPS addition and measured after 24 hrs by cytometric bead array-based FACS analysis; format: functional, cell-based
PBMC [7] = assay: Inhibition of LPS-induced TNFalpha production in human PBMC at 50 nM preincubated for 1 hr followed by LPS addition and measured after 24 hrs by cytometric bead array-based FACS analysis; format: functional, cell-based

Activity [3]: 100%
SMILES: CC(C)(C)ONC(=O)C[C@H](NC(=O)CCc1ccccc1)C(=O)N[C@@H](Cc1ccc(F)cc1)C(=O)NCc1cccc2ccccc12
inhibition (PBMC [1]): inactive | inhibition (PBMC [2]): Active | inhibition (PBMC [4]): Active | inhibition (PBMC [5]): inactive | inhibition (PBMC [6]): inactive | inhibition (PBMC [7]): inactive
